One compound from PMC5743070 (The Journal of Biological Chemistry, 2017) can be followed below.

One experiment concerns the target T1, TTD (UHRF1_121–286) (Homo sapiens, UniProt Q96T88).
T1 construct: UHRF1_121–286 corresponding to the TTD; made in house
T1 sequence (Q96T88 121-286): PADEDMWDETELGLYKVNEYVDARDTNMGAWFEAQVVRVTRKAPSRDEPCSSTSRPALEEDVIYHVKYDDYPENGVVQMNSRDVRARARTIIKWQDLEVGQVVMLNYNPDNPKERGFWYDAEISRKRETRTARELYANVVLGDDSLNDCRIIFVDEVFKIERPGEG
The experiment is described as follows: HSQC competition of BPC and linker peptide on TTD. In kind it is binding. Conditions: BPC 2.4 mM, linker peptide 3.0 mM, 5% DMSO; I211, I212 and E281 resonances in HSQC. The protocol:
NMR samples were buffered in 20 mM sodium phosphate (pH 7.5), 150 mM NaCl, 5 mM DTT, 5 mM β-mercaptoethanol, 2 mM TCEP, and 10 μM ZnSO4. The protein concentration was between 200 and 300 μM for all samples. The data were collected at 25 °C on Bruker spectrometers equipped with cryoprobes and operating at 500, 600, or 800 MHz. The assignment of backbone TTD–PHD resonances was accomplished using the ABACUS method ([29]) for which standard backbone and ^15N-edited NOESY spectra were collected using ^15N/^13C/^2H- or ^15N/^13C-labeled protein. All 3D experiments were acquired using non-uniform sampling and processed using the software MDDGUI ([30]) or qMDD ([31]). ^15N-Labeled TTD–PHD was used to acquire ^15N T1 and T2 relaxation and ^1H-^15N heteronuclear NOE measurements ([32]) collected using standard Bruker pulse schemes in an interleaved manner. For T1 measurements, the variable delay was set to 0.1, 0.4, 0.8, 1.5, 2.0, 2.5, 3.5, and 5 s. For T2 measurements, the variable delay was set to 16, 32, 48, 64, 80, 96, 128, and 144 ms. The D1 was 3 s for all experiments. Reported values were the average from two measurements. All spectra were processed using NMRPipe ([33]) and analyzed with SPARKY ([34]). […]
trated by the perturbation of I211, I212 and E281 resonances in HSQC spectra of the TTD in a competition assay. […]

Experiment [1] has as its target isolated TTD (UHRF1_121–286). The experiment is described as follows: FP displacement of FITC-labeled H3K9me3(1–25) peptide from TTD. In kind it is biochemical. Conditions: FP displacement of N-terminally FITC-labeled H3K9me3(1-25), 0.04 μM peptide, 8 μM TTD, 20 mM Tris pH 8.5, 50 mM NaCl, 3% DMSO, 0.01% TX100. The text has this: We designed a fragment library containing 2,040 compounds that was initially screened against isolated TTD (UHRF1_121–286) using a fluorescence polarization (FP) assay that tracked the displacement of a N-terminally tagged H3K9me3 peptide (H3K9me3(1–25)). From this screen, eight putative TTD-binding hits were identified. […] Because of limited commercial availability of the tricyclic amine, we focused only on BPC. The binding of this compound occurs close to (or within) the Arg^296-binding pocket; we observe significant perturbation of Trp^238 and Phe^278 resonances that form part of the pocket, and in Gly^236, which is directly adjacent to it (Fig. 4A and supplemental Fig. S5). We also see chemical shift changes in non-surface exposed residues that are close to or are in contact with the groove.
For FP assays, the TTD (UHRF1_121–286) was buffered in 20 mM Tris (pH 8.5), 50 mM NaCl, 3% DMSO, and 0.01% TX100. N-terminal FITC-labeled H3K9me3(1–25) peptide was synthesized and purified by Tufts University Core Services (Boston, MA). Titrations and compound binding assays were performed in a 10-μl volume at a constant labeled peptide concentration of 0.04 μM. For compound screening and titrations, a non-saturating fixed protein concentration of 8 μM TTD was used. FP assays were performed in 384-well Axygen plates using a Synergy 4 microplate reader (BioTek). […]

Regarding `N=C(N)N1CCC(Cc2ccccc2)CC1` [BPC, 4-benzylpiperidine-1-carboximidamide], the “competition for the TTD groove” value at TTD (UHRF1_121–286) is reported as “compete directly for the TTD groove”. The Kdisp in experiment [1] was determined as 312 µM.
